Assay results published in PubChem BioAssay (NCI).
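Following 48 hours of exposure in 96-well plates, responses at five concentrations were used to interpolate endpoints linearly. At the TGI there is no net growth.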

What was measured:
Test in all cases: growth of human tumour cells (NCI), 48 h
HOP-92 NSCLC = tested on: HOP-92 NSCLC
SF-295 CNS = tested on: SF-295 CNS
HOP-18 NSCLC = tested on: HOP-18 NSCLC
OVCAR-4 ovarian = tested on: OVCAR-4 ovarian
COLO 205 colon = tested on: COLO 205 colon
UACC-62 melanoma = tested on: UACC-62 melanoma
ACHN renal = tested on: ACHN renal
CAKI-1 renal = tested on: CAKI-1 renal
MALME-3M melanoma = tested on: MALME-3M melanoma
SK-OV-3 ovarian = tested on: SK-OV-3 ovarian
A498 renal = tested on: A498 renal
SW-620 colon = tested on: SW-620 colon
OVCAR-5 ovarian = tested on: OVCAR-5 ovarian
SK-MEL-2 melanoma = tested on: SK-MEL-2 melanoma
M19-MEL melanoma = tested on: M19-MEL melanoma
RXF-631 renal = tested on: RXF-631 renal
NCI-H23 lung = tested on: NCI-H23 lung
NCI-H522 lung = tested on: NCI-H522 lung
U251 CNS = tested on: U251 CNS
SK-MEL-28 melanoma = tested on: SK-MEL-28 melanoma
TK-10 renal = tested on: TK-10 renal
OVCAR-3 ovarian = tested on: OVCAR-3 ovarian
DMS 273 small cell lung = tested on: DMS 273 small cell lung
SF-539 CNS = tested on: SF-539 CNS
786-0 renal = tested on: 786-0 renal
OVCAR-8 ovarian = tested on: OVCAR-8 ovarian
HCT-116 colon = tested on: HCT-116 colon
SNB-78 CNS = tested on: SNB-78 CNS
MOLT-4 leukemia = tested on: MOLT-4 leukemia
RPMI-8226 leukemia = tested on: RPMI-8226 leukemia
NCI-H226 lung = tested on: NCI-H226 lung
HT29 colon = tested on: HT29 colon
SF-268 CNS = tested on: SF-268 CNS
SK-MEL-5 melanoma = tested on: SK-MEL-5 melanoma
SN12C renal = tested on: SN12C renal
RXF 393 renal = tested on: RXF 393 renal
UO-31 renal = tested on: UO-31 renal
EKVX NSCLC = tested on: EKVX NSCLC
A549 NSCLC = tested on: A549 NSCLC
HCT-15 colon = tested on: HCT-15 colon
HOP-62 NSCLC = tested on: HOP-62 NSCLC
KM20L2 colon = tested on: KM20L2 colon
UACC-257 melanoma = tested on: UACC-257 melanoma
NCI-H460 lung = tested on: NCI-H460 lung
LOX IMVI melanoma = tested on: LOX IMVI melanoma
M14 melanoma = tested on: M14 melanoma
IGROV1 ovarian = tested on: IGROV1 ovarian
HL-60(TB) leukemia = tested on: HL-60(TB) leukemia
SNB-75 CNS = tested on: SNB-75 CNS
LXFL 529 NSCLC = tested on: LXFL 529 NSCLC
HCC-2998 colon = tested on: HCC-2998 colon
DLD-1 colon = tested on: DLD-1 colon

Measured: TGI

c1ccc(-c2[o+]c(-c3ccccc3)c(-c3ccccc3)c(-c3ccccc3)c2-c2ccccc2)cc1
> 100 µM: all assays above
